Assay results: ChEMBL document CHEMBL3886759, “Indole-1-carboxamides as kinase inhibitors” (2016)

Legend:
[1] = molecular target: Vascular endothelial growth factor receptor 2 (Homo sapiens, UniProt P35968); experiment: (§1) Kinase Assay: Biochemical KDR kinase assays were performed in 96 well microtiter plates that were coated overnight with 75 μg/well of poly-Glu-Tyr (4:1) in 10 mM Phosphate Buffered Saline (PBS), pH 7.4. The coated plates were washed with 2 mls per well PBS+0.05% Tween-20 (PBS-T), blocked by incubation with PBS containing 1% BSA, then washed with 2 mls per well PBS-T prior to starting the reaction. Reactions were carried out in 100 μL reaction volumes containing 2.7 μM ATP in kinase buffer (50 mM Hepes buffer pH 7.4, 20 mM MgCl2, 0.1 mM MnCl2 and 0.2 mM Na3VO4). Test compounds were reconstituted in 100% DMSO and added to the reaction to give a final DMSO concentration of 5%. Reactions were initiated by the addition 20 ul per well of kinase buffer containing 200-300 ng purified cytoplasmic domain KDR protein (BPS Bioscience, San Diego, Calif.).
[2] = molecular target: Platelet-derived growth factor receptor beta (Homo sapiens, UniProt P09619); experiment: as §1, with “Biochemical PDGFRβ” for “Biochemical KDR”, “75 μg” for “75 μg/well”, “containing 36” for “containing 2.7”, “domain PDGFR-b” for “domain KDR”, “protein (Millipore). Following a 60 minute incubation at 30° C., the reactions were washed 2 mls per well PBS-T.” for “protein (BPS Bioscience, San Diego, Calif.).”
Sequence of Platelet-derived growth factor receptor beta (P09619 whole entry): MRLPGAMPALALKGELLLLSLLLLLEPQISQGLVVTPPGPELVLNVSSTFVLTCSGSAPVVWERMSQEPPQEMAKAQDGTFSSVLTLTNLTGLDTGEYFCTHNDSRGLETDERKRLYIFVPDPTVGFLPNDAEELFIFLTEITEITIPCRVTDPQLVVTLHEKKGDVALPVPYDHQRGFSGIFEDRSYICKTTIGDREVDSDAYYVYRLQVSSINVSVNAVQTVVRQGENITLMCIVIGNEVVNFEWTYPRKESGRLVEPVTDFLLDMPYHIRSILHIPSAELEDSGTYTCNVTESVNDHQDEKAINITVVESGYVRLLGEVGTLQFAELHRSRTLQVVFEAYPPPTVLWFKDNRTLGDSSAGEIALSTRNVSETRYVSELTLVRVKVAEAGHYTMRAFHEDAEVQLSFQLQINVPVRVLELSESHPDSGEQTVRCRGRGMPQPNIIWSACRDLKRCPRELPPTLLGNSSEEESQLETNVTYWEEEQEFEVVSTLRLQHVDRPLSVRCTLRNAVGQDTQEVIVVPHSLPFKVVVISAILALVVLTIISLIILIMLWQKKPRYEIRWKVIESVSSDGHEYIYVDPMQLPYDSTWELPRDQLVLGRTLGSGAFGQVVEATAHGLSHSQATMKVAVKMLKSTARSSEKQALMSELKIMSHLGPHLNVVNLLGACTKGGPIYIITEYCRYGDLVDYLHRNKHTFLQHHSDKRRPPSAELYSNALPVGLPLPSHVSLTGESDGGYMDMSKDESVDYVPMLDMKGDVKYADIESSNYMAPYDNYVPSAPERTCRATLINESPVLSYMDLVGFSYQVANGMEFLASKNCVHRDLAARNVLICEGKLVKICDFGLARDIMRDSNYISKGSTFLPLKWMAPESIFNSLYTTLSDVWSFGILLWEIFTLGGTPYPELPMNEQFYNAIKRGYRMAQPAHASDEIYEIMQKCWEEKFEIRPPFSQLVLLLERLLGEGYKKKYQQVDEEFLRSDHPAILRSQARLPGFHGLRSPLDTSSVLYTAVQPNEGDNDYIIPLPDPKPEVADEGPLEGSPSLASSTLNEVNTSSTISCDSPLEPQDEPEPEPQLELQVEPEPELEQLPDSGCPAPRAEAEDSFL

Sequence of Vascular endothelial growth factor receptor 2 (P35968 whole entry, the tested form may be a part): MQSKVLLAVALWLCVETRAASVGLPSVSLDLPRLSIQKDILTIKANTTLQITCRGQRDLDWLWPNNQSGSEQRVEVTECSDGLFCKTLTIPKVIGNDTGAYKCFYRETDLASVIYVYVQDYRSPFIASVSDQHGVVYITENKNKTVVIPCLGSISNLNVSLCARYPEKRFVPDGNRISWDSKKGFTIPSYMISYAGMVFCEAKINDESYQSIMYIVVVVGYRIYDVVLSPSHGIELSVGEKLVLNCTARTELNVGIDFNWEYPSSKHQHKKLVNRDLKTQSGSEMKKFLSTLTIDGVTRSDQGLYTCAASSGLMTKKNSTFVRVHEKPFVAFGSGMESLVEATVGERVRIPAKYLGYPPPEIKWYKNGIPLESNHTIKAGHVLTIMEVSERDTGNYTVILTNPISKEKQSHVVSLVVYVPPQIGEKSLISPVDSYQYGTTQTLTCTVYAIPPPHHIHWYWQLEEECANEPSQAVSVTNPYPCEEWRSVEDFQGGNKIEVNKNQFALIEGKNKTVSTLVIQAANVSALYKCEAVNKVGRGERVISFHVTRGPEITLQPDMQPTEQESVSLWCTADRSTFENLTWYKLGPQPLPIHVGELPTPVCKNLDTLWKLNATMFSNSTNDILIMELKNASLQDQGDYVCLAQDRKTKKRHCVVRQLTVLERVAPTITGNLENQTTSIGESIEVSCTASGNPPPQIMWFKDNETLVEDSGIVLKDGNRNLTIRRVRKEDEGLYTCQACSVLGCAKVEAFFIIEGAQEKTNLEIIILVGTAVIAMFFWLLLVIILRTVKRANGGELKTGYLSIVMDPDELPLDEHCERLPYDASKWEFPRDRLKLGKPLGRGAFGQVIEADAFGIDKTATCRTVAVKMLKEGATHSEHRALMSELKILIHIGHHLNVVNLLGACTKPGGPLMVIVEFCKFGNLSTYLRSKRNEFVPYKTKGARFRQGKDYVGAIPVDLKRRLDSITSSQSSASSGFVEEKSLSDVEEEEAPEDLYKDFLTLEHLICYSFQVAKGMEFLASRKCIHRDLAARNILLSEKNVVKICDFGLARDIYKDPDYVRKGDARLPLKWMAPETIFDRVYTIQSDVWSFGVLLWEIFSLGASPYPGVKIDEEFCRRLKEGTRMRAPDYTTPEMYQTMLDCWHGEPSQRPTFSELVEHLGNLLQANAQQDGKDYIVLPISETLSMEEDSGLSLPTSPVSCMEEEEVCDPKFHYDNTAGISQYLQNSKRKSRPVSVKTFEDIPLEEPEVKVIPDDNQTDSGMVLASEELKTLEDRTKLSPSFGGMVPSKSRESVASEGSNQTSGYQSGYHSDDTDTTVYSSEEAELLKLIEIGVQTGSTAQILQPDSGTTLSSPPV

IC50 [1]: 3 nM | IC50 [2]: 10 nM
SMILES: CCc1cccc(NC(=O)Nc2ccc(-c3cc4ccccc4n3C(N)=O)cc2)c1
